Test results published in patent US20240190849A1, “AMINOPYRIMIDINE COMPOUNDS AND METHODS OF THEIR USE” (TYRA BIOSCIENCES, INC., priority 2021, published 2024).

Columns and labels:
FGFR2 = target: T1, FGFR2 (Homo sapiens, UniProt P21802); assay: Kinase binding assay (kinase-tagged T7 phage, affinity beads, qPCR readout), FGFR2; details: FGFR binding data
T1 construct: made in house; host or cells: E. coli derived from BL21, infected with T7 phage
In short: (§1)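 First, streptavidin beads were loaded with biotinylated ligand and blocked. Kinase, beads and compound were then shaken together for 1 hour at room temperature in SeaBlock/PBS/Tween/DTT buffer. Finally, eluted kinase was measured by qPCR and Kd fitted with Hill slope −1.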

[1] = tested on: SNU-16 (Gastric Carcinoma), FGFR2 amplification; assay: Cancer cell viability assay (Cell Titer-Glo), SNU-16; format: cell-based; details: Homo sapiens, SNU-16 cells, 72 hours, read-out: SNU16 FGFR2 (IC50 nM)
Source text: RT112/84, UM-UC-14, SNU-16 and KG-1 Cancer Cell Line Cell Viability Assays
To detect the change of intracellular ATP by Cell Titer-Glo@ and to evaluate the inhibitory effect of the compounds on cancer cell lines by determining the in vitro IC50 value of the compounds.
Cell Titer-Glo@ 2.0 Luminescent cell viability assay reagent was purchased from Promega (Madison, WI). RT112/84, SNU-16, and KG-1 cell lines were purchased from American Type Culture Collection (Manassas, VA). UM-UC-14 cell line was purchased from Sigma (St. Louis, MO). RT112/84, UM-UC-14, SNU-16, and KG-1 cells were cultured in RPMI1640 media supplemented with 10% fetal bovine serum. Cultures were maintained at 37° C. in a humidified atmosphere of 5% CO2 and 95% air.
Cell Viability Assay Procedure: Cells were plated in 96-well clear bottom/white plates (Corning #3903) at 10,000 cells/well in 100 μl of media, incubated overnight. The next day, test compound DMSO stock solutions were made at 10 mM and 2 μM final concentration. Compounds were then added to cells in a 9-dose, […] dilution series starting at 30 μM with an HP 300e Digital Dispenser (each dose was applied in triplicate). DMSO was backfilled to each well up to 301 nL total volume of test compound+DMSO, and a total of 301 nL DMSO was added to a control/no test compound well in triplicate. The cells in cell culture plates were incubated with the compounds at 37° C. and 5% CO2 for 72 hours. Then 50 μl of Cell Titer Glo 2.0 reagent was added to each well of the cell culture plates. The contents were covered from light and mixed on an orbital shaker at room temperature for 10 min. Luminescence was recorded by a Synergy H1 Microplate Reader (Biotek, Winooski, VT). Cells were assessed as a percentage of DMSO only treated control cells. Curves were plotted and IC50 values were calculated using the GraphPad Prism 8 program based on a sigmoidal dose-response equation (4 parameter).

FGFR1 = target: T2, FGFR1 (Homo sapiens, UniProt P11362); assay: Kinase binding assay (kinase-tagged T7 phage, affinity beads, qPCR readout), FGFR1; details: FGFR binding data
T2 construct: made in house; host or cells: E. coli derived from BL21, infected with T7 phage
In short: as §1

FGFR3 (V555M) = target: T3, FGFR3 (V555M) (Homo sapiens, UniProt P22607, V555M); assay: Kinase binding assay (kinase-tagged T7 phage, affinity beads, qPCR readout), FGFR3 (V555M); details: FGFR binding data
T3 construct: made in house; host or cells: E. coli derived from BL21, infected with T7 phage
In short: as §1

FGFR3 = target: T4, FGFR3 (Homo sapiens, UniProt P22607); assay: Kinase binding assay (kinase-tagged T7 phage, affinity beads, qPCR readout), FGFR3; details: FGFR binding data
T4 construct: made in house; host or cells: E. coli derived from BL21, infected with T7 phage
In short: as §1

T3 sequence (P22607 23-806 V555M): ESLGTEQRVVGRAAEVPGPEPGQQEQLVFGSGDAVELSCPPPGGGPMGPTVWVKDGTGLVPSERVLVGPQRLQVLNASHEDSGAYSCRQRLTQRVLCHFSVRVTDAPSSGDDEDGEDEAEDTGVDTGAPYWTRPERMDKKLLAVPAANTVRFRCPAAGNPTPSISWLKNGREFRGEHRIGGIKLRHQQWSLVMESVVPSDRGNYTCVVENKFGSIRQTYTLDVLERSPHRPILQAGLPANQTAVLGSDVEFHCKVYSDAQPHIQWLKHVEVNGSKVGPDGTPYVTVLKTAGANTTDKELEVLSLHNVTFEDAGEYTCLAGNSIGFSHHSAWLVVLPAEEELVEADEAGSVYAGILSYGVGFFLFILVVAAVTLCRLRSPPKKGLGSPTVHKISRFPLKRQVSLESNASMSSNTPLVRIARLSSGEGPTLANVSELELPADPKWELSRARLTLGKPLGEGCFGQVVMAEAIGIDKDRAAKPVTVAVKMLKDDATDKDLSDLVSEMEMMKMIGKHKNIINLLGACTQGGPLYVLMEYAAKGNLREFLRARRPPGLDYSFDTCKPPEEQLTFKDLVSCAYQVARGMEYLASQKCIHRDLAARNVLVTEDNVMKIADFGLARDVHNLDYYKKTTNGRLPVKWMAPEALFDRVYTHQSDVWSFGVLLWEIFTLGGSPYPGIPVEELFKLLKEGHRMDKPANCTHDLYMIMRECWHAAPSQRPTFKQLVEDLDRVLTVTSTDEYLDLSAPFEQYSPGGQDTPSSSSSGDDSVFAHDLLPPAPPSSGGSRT
T1 sequence (P21802 22-821): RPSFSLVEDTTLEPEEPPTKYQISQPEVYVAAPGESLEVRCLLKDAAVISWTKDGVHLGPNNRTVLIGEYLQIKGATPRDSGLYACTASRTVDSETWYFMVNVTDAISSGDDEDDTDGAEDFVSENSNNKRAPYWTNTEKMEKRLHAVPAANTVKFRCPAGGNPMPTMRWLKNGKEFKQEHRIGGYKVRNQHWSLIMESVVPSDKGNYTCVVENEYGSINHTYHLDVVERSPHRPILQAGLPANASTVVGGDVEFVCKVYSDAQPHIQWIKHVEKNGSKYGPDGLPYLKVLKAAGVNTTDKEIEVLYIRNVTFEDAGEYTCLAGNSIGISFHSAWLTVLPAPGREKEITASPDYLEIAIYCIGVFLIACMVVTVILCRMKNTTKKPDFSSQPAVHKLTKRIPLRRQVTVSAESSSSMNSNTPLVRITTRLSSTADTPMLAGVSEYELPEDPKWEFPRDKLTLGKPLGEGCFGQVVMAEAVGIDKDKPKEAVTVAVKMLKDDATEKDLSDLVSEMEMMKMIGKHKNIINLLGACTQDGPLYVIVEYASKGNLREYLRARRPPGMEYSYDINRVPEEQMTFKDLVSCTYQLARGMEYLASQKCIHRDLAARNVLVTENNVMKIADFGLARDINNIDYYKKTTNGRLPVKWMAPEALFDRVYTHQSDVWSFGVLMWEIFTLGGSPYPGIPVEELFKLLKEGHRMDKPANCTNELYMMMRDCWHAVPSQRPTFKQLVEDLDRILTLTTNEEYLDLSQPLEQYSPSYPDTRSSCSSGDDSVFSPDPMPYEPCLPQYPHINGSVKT
T4 sequence (P22607 23-806): as the sequence (P22607 23-806 V555M) above, with M533V counted along it
T2 sequence (P11362 22-822): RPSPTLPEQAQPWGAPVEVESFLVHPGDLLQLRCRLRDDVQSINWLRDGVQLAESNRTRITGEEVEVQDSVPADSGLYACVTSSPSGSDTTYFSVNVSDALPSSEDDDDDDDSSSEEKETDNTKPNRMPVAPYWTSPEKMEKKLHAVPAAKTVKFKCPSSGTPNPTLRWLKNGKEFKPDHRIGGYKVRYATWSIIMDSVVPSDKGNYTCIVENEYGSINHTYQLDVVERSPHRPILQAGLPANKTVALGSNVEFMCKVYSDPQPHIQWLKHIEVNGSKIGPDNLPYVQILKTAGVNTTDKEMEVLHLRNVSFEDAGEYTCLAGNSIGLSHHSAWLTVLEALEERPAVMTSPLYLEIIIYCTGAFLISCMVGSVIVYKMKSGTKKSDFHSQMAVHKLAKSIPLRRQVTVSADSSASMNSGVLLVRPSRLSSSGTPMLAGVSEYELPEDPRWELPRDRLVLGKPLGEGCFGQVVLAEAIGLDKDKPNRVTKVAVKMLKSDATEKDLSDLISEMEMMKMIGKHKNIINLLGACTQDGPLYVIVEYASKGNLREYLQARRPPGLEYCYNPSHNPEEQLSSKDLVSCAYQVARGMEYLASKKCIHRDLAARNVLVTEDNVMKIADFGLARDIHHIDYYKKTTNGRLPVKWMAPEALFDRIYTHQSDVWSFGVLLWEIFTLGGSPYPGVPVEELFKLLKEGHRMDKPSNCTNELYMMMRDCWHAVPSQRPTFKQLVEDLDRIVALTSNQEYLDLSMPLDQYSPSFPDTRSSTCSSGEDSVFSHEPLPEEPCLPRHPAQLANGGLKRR

Compound	Kd (FGFR2) [nM]	IC50 [1] [nM]	Kd (FGFR1) [nM]	Kd (FGFR3 (V555M)) [nM]	Kd (FGFR3) [nM]
C=CC(=O)Nc1ccc2c(c1)c(C)cn2-c1nc(Nc2cn(CC(F)F)nc2C)ncc1F [Example 164, N-[1-[2-[[1-(2,2-difluoroethyl)-3-methyl-pyrazol-4-yl]amino]-5-fluoro-pyrimidin-4-yl]-3-methyl-indol-5-yl]prop-2-enamide]	0.1 to 100	0.1 to 100	0.1 to 100	0.1 to 100	0.1 to 100
C=CC(=O)Nc1ccc2c(-c3nc(Nc4cnn(CCO)c4)ncc3C)cn(C)c2c1 [Example 126, N-[3-[2-[[1-(2-hydroxyethyl)pyrazol-4-yl]amino]-5-methyl-pyrimidin-4-yl]-1-methyl-indol-6-yl]prop-2-enamide]	0.1 to 100	0.1 to 100	0.1 to 100	0.1 to 100	0.1 to 100
C=CC(=O)Nc1ccc2c(-c3nc(Nc4cn(C)nc4C)ncc3F)cn(C)c2c1 [Example 154, N-[3-[2-[(1,3-dimethylpyrazol-4-yl)amino]-5-fluoro-pyrimidin-4-yl]-1-methyl-indol-6-yl]prop-2-enamide]	0.1 to 100	0.1 to 100	250 to 1000	0.1 to 100	0.1 to 100
C=CC(=O)Nc1ccc2c(c1)c(C)cn2-c1nc(Nc2cnsc2)ncc1F [Example 148, N-[1-[5-fluoro-2-(isothiazol-4-ylamino)pyrimidin-4-yl]-3-methyl-indol-5-yl]prop-2-enamide]	0.1 to 100	0.1 to 100	0.1 to 100	0.1 to 100	0.1 to 100
C=CC(=O)Nc1ccc2c(c1)c(C)cn2-c1nc(Nc2cn(CC(F)(F)F)nc2C)ncc1F [Example 165, N-[1-[5-fluoro-2-[[3-methyl-1-(2,2,2-trifluoroethyl)pyrazol-4-yl]amino]pyrimidin-4-yl]-3-methyl-indol-5-yl]prop-2-enamide]	0.1 to 100	0.1 to 100	0.1 to 100	0.1 to 100	0.1 to 100
C=CC(=O)Nc1ccc2c(c1)c(C)cn2-c1nc(Nc2cn(CCO)nc2C)ncc1F [Example 176, N-[1-[5-fluoro-2-[[1-(2-hydroxyethyl)-3-methyl-pyrazol-4-yl]amino]pyrimidin-4-yl]-3-methyl-indol-5-yl]prop-2-enamide]	0.1 to 100	0.1 to 100	0.1 to 100	0.1 to 100	0.1 to 100
C=CC(=O)Nc1ccc2c(c1)c(C)cn2-c1nc(Nc2cnn(C3CCOCC3)c2)ncc1F [Example 208, N-[1-[5-fluoro-2-[(1-tetrahydropyran-4-ylpyrazol-4-yl)amino]pyrimidin-4-yl]-3-methyl-indol-5-yl]prop-2-enamide]	0.1 to 100	0.1 to 100	0.1 to 100	0.1 to 100	0.1 to 100
C=CC(=O)Nc1ccc2c(c1)c(C)cn2-c1nc(Nc2cn(CC(C)(C)O)nc2C)ncc1F [Example 182, N-[1-[5-fluoro-2-[[1-(2-hydroxy-2-methyl-propyl)-3-methyl-pyrazol-4-yl]amino]pyrimidin-4-yl]-3-methyl-indol-5-yl]prop-2-enamide]	0.1 to 100	0.1 to 100	0.1 to 100	0.1 to 100	0.1 to 100
C=CC(=O)Nc1ccc2c(c1)c(C)cn2-c1nc(Nc2cnn(CC3(O)CC3)c2)ncc1F [Example 175, N-[1-[5-fluoro-2-[[1-[(1-hydroxycyclopropyl)methyl]pyrazol-4-yl]amino]pyrimidin-4-yl]-3-methyl-indol-5-yl]prop-2-enamide]	0.1 to 100	0.1 to 100	0.1 to 100	0.1 to 100	0.1 to 100
C=CC(=O)Nc1ccc2c(-c3nc(Nc4cnn(CCO)c4)ncc3Cl)cn(C)c2c1 [Example 127, N-[3-[5-chloro-2-[[1-(2-hydroxyethyl)pyrazol-4-yl]amino]pyrimidin-4-yl]-1-methyl-indol-6-yl]prop-2-enamide]	0.1 to 100	0.1 to 100	0.1 to 100	0.1 to 100	0.1 to 100
C=CC(=O)Nc1ccc2c(c1)c(C)cn2-c1nc(Nc2cnn(C3CCOC3)c2)ncc1F (stereo not shown) [Example 215, N-[1-[5-fluoro-2-[(1-tetrahydrofuran-3-ylpyrazol-4-yl)amino]pyrimidin-4-yl]-3-methyl-indol-5-yl]prop-2-enamide]	0.1 to 100	0.1 to 100	0.1 to 100	0.1 to 100	0.1 to 100
C=CC(=O)Nc1cnc2c(c1)c(C)cn2-c1nc(Nc2cc(C)n(C(=O)OC(C)(C)C)n2)ncc1C [Example 124, tert-butyl 5-methyl-3-[[5-methyl-4-[3-methyl-5-(prop-2-enoylamino)pyrrolo[2,3-b]pyridin-1-yl]pyrimidin-2-yl]amino]pyrazole-1-carboxylate]	100 to 250	0.1 to 100	100 to 250	0.1 to 100	0.1 to 100

The next lines start with the values.

Kd (FGFR2) [nM]	IC50 [1] [nM]	Kd (FGFR1) [nM]	Kd (FGFR3 (V555M)) [nM]	Kd (FGFR3) [nM]	Compound
0.1 to 100	0.1 to 100	0.1 to 100	0.1 to 100	0.1 to 100	Cc1cn(-c2nc(Nc3cnn(CCO)c3)ncc2F)c2ccc(NC(=O)/C=C/CN(C)C)cc12 [Example 144, (E)-4-(dimethylamino)-N-[1-[5-fluoro-2-[[1-(2-hydroxyethyl)pyrazol-4-yl]amino]pyrimidin-4-yl]-3-methyl-indol-5-yl]but-2-enamide]
100 to 250	0.1 to 100	250 to 1000	0.1 to 100	0.1 to 100	C=CC(=O)Nc1ccc2c(c1)c(C)cn2-c1nc(Nc2cccnc2C)ncc1F [Example 153, N-[1-[5-fluoro-2-[(2-methyl-3-pyridyl)amino]pyrimidin-4-yl]-3-methyl-indol-5-yl]prop-2-enamide]
0.1 to 100	0.1 to 100	0.1 to 100	0.1 to 100	0.1 to 100	C=CC(=O)Nc1ccc2c(c1)c(C)cn2-c1nc(Nc2cn(C[C@@H](C)O)nc2C)ncc1F [Example 214, N-[1-[5-fluoro-2-[[1-[(2R)-2-hydroxypropyl]-3-methyl-pyrazol-4-yl]amino]pyrimidin-4-yl]-3-methyl-indol-5-yl]prop-2-enamide]
0.1 to 100	0.1 to 100	0.1 to 100	0.1 to 100	0.1 to 100	Cc1cnc(Nc2cnn(CCO)c2)nc1-n1cc(C)c2cc(NC(=O)/C=C/CN(C)C)ccc21 [Example 122, (E)-4-(dimethylamino)-N-[1-[2-[[1-(2-hydroxyethyl)pyrazol-4-yl]amino]-5-methyl-pyrimidin-4-yl]-3-methyl-indol-5-yl]but-2-enamide]
0.1 to 100	0.1 to 100	0.1 to 100	0.1 to 100	0.1 to 100	C=CC(=O)Nc1ccc2c(c1)c(C)cn2-c1nc(Nc2cn(CC)nc2C)ncc1F [Example 156, N-[1-[2-[(1-ethyl-3-methyl-pyrazol-4-yl)amino]-5-fluoro-pyrimidin-4-yl]-3-methyl-indol-5-yl]prop-2-enamide]
100 to 250	0.1 to 100	250 to 1000	0.1 to 100	0.1 to 100	Cc1cnc(Nc2ccnn2C)nc1-n1cc(C)c2cc(NC(=O)/C=C/CN(C)C)ccc21 [Example 107, (E)-4-(dimethylamino)-N-[3-methyl-1-[5-methyl-2-[(2-methylpyrazol-3-yl)amino]pyrimidin-4-yl]indol-5-yl]but-2-enamide]
0.1 to 100	0.1 to 100	0.1 to 100	0.1 to 100	0.1 to 100	C=CC(=O)Nc1ccc2c(c1)c(C)cn2-c1nc(Nc2ccn(C3COC3)n2)ncc1C [Example 120, N-[3-methyl-1-[5-methyl-2-[[1-(oxetan-3-yl)pyrazol-3-yl]amino]pyrimidin-4-yl]indol-5-yl]prop-2-enamide]
0.1 to 100	0.1 to 100	0.1 to 100	0.1 to 100	0.1 to 100	C=CC(=O)Nc1ccc2c(c1)c(C)cn2-c1nc(Nc2cnn(C)c2C)ncc1C [Example 147, N-[1-[2-[(1,5-dimethylpyrazol-4-yl)amino]-5-methyl-pyrimidin-4-yl]-3-methyl-indol-5-yl]prop-2-enamide]
